US20210145802A1, “THERAPY FOR OPHTHALMOLOGICAL CONDITIONS” (WREN THERAPEUTICS LIMITED, priority 2018, published 2021)

How the values were obtained:
GMC101 (Aβ worms) [1] = experiment: Automated motility assay, Aβ worms; type: in vivo, C. elegans
Protocol: GMC101 dvIs100[unc-54p::A-beta-1-42::unc-54 3′UTR+mt1-2p::GFP]. mt1-2p::GFP produces constitutive expression of GFP in intestinal cells. unc-54p::A-beta-1-42 expresses full-length human Aβ42 peptide in body wall muscle cells that aggregates in vivo. Shifting L4 or young adult animals from 20° to 24° C. causes paralysis (G. McColl et al., Utility of an improved model of amyloid-beta (Aβ1-42) toxicity in Caenorhabditis elegans for drug screening for Alzheimer's disease. Mol Neurodegener. 7, 57 (2012));
(§1) Briefly, Netoglitazone stocks (5 mM in 100% DMSO) were used at an appropriate concentration to seed 9-cm NGM plates. Plates were then placed in a laminar flow hood at room temperature (22° C.) for up to 4 hours to dry. C. elegans cultures were then transferred onto media seeded with compound as L4 stage or Day 3 for late treatments and incubated at 24° for the whole experiment. Experiments were carried out at different Netoglitazone concentrations ranging from 0.05 to 500 μM in 1% DMSO. As controls, plates seeded only with 1% DMSO were used.
All C. elegans populations were cultured at 20° C. and developmentally synchronized from a 4 h egg-lay. At 64-72 h post-egg-lay (time zero), individuals were transferred to FUDR plates, and body movements were assessed over the times indicated. At different ages, the animals were washed off the plates with M9 buffer and spread over an OP-50 unseeded 9 cm plate, after which their movements were recorded at 20 fps using a recently developed microscopic procedure (M. Perni et al., Massively parallel C. elegans tracking provides multi-dimensional fingerprints for phenotypic discovery. J. Neurosci. Methods. 306, 57-67 (2018)) for 1 min. Up to 600 animals were counted in each experiment in duplicate unless stated otherwise. […]
In order to screen for the effect of therapeutics in the most robust way, a wide field-of-view nematode-tracking platform (WF-NTP) was used, which enables the simultaneous investigation of multiple phenotypic readouts on large worm populations. […]

GMC101 (Aβ worms) [2] = experiment: NIAD-4 plaque staining in living Aβ worms; type: in vivo, C. elegans
Protocol: Plaques staining was carried out as previously described (J. Habchi et al. (2016); M. Perni et al., A natural product inhibits the initiation of α-synuclein aggregation & suppresses its toxicity. Proc. Natl. Acad. Sci. U.S.A. 114, E1009-E1017 (2017)). Briefly, live transgenic animals were incubated with NIAD-4 over a range of concentrations and times, with 1 μM NIAD-4 (0.1% DMSO in M9 buffer) for 4 hours at room temperature. After staining, animals were allowed to recover on NGM plates for about 24 hours to allow destaining via normal metabolism. Stained animals were mounted on 2% agarose pads containing 40 mM NaN3 as anaesthetic on glass microscope slides for imaging. Images were captured with a Zeiss Axio Observer D1 fluorescence microscope (Carl Zeiss Microscopy GmbH) with a 20× objective and a 49004 ET-CY3/TRITC filter (Chroma Technology Corp). Fluorescence intensity was calculated using ImageJ software (National Institutes of Health) and then normalized as the corrected total cell fluorescence. Only the head region was considered because of the high background signal in the guts. All experiments were carried out in triplicate, and the data from one representative experiment are shown. Statistical significance was determined using t tests.

control worms = details: C. elegans, in vivo
Protocol: as §1

GMC101 (Aβ worms) [3] = details: GMC101, C. elegans, in vivo
Protocol: as §1

Aβ42 = biological target: T1, Aβ42 (Homo sapiens, UniProt P05067); experiment: Aβ42 aggregation kinetics in human CSF; type: biochemical; details: 66% CSF; 1.25 and 5-fold excess
T1 construct: […]; made in house; host or cells: E. coli BL21 Gold (DE3)
T1 sequence (P05067 671-713): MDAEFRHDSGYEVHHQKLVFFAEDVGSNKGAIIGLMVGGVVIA
Protocol: For the experiments of Aβ42 aggregation kinetics in human CSF, monomeric solutions of 3 μM Aβ42 were prepared similar to above with the only exception that the buffer was 20 mM Hepes, pH 8 supplemented with 1 mM CaCl2 at 150 mM NaCl. The obtained monomer was diluted with the […] in order to reach 66% final concentration of CSF, in which the effect of CSF is close to maximum. Aβ42 aggregation kinetics were performed in the absence and the presence of 1.25 and 5-fold excess of Netoglitazone.

GMC101 (Aβ worms) [4] = experiment: ROS production (ROS-Glo H2O2 assay) in worms; type: in vivo, C. elegans; details: 5 μM; administered at L4; D5 of adulthood
Protocol: ROS-Glo™ H2O2 cell kit assay was used (Promega, Fitchburg, Wis., USA) and adapted for C. elegans studies. The ROS-Glo™ H2O2 Assay is a bioluminescent assay that measures the level of H2O2, a reactive oxygen species (ROS), directly in cell culture or tissue or in defined enzyme reactions. A derivatized luciferin substrate is incubated with sample and reacts directly with H2O2 to generate a luciferin precursor. Worms treated with 5 μM Netoglitazone in 1% DMSO or 1% DMSO only were washed using M9 buffer out the NGM plates. The buffer was then changed 3 times to remove the excess bacteria. Worm pellets were then divided in three wells and 80 μl of worm pellet (around 200 worms/well) was incubated for 6 h at RT with 20 μl of a ROS Substrate Solution (Promega, Fitchburg, Wis., USA); mild shaking at 300 rpm was used to avoid worm sedimentation; afterwards, worms were incubated for ca. 20 min with 100 μl of the detection solution; luminescence was then measured with a Clariostar (BMG Labtech, Aylesbury, UK).

O=C1NC(=O)C(Cc2ccc3cc(OCc4ccccc4F)ccc3c2)S1 (stereo not drawn) [Netoglitazone]
mobility of Aβ worms after treatment at L4 (GMC101 (Aβ worms) [1]; 0-10 μM, administered at L4): greatly improves the mobility | mobility after late administration (GMC101 (Aβ worms) [1]; administered at D3, D5 of adulthood): increase | concentration range of best protective effect on mobility (GMC101 (Aβ worms) [1]; administered at L4, observed at D3 of adulthood): 0.5 to 5 µM | plaques load (NIAD-4 fluorescence) (GMC101 (Aβ worms) [2]; 0.5 μM, treatment at L4, day 6 of adulthood): significantly decrease the plaques load | plaques load after late administration (GMC101 (Aβ worms) [2]; administered at D3 of adulthood, measured at D6): significant decrease of the plaques load | maximum tolerable dose (control worms): < 500 µM | maximum tolerable dose (GMC101 (Aβ worms) [3]): less than 50 μM | delay of Aβ42 aggregation kinetics in 66% human CSF (Aβ42): significantly delayed the aggregation kinetics | levels of ROS production (GMC101 (Aβ worms) [4]): significantly decreased the levels of oxidative species
